Laboratory results: ChEMBL document CHEMBL2440076, “New triarylpyrazoles as broad-spectrum anticancer agents: design, synthesis, and biological evaluation” (Eur J Med Chem, 2013)

How the values were obtained:
Assay type in all cases: functional
NCI-H322M [1] = assay: Growth inhibition of human NCI-H322M cells assessed as cell growth at 3X10'-7 M after 48 hrs by sulforhodamine B assay; details: read-out: Activity
HL-60(TB) [2] = assay: Growth inhibition of human HL-60(TB) cells assessed as cell growth at 3X10'-7 M after 48 hrs by sulforhodamine B assay; details: HL-60, 48 h, read-out: Activity
786-0 = assay: Growth inhibition of human 786-0 cells assessed as cell growth at 3X10'-8 M after 48 hrs by sulforhodamine B assay; details: 786-0, 48 h, read-out: Activity
CCRF-CEM = assay: Growth inhibition of human CCRF-CEM cells assessed as cell growth at 3X10'-9 M after 48 hrs by sulforhodamine B assay; details: read-out: Activity
OVCAR-3 [3] = assay: Growth inhibition of human OVCAR3 cells assessed as cell growth at 3X10'-8 M after 48 hrs by sulforhodamine B assay; details: OVCAR-3, 48 h, read-out: Activity
SK-MEL-28 = assay: Growth inhibition of human SK-MEL-28 cells assessed as cell growth at 3X10'-8 M after 48 hrs by sulforhodamine B assay; details: SK-MEL-28, 48 h, read-out: Activity
U-251 = assay: Growth inhibition of human U251 cells assessed as cell growth at 3X10'-8 M after 48 hrs by sulforhodamine B assay; details: U-251, 48 h, read-out: Activity
HT-29 = assay: Growth inhibition of human HT-29 cells assessed as cell growth at 3X10'-8 M after 48 hrs by sulforhodamine B assay; details: HT-29, 48 h, read-out: Activity
NCI-H322M [4] = assay: Growth inhibition of human NCI-H322M cells assessed as cell growth at 3X10'-8 M after 48 hrs by sulforhodamine B assay; details: read-out: Activity
NCI-H226 [5] = assay: Growth inhibition of human NCI-H226 cells assessed as cell growth at 3X10'-8 M after 48 hrs by sulforhodamine B assay; details: NCI-H226, 48 h, read-out: Activity
MDA-MB-231 = assay: Growth inhibition of human MDA-MB-231 cells assessed as cell growth at 3X10'-9 M after 48 hrs by sulforhodamine B assay; details: MDA-MB-231, 48 h, read-out: Activity
MCF7 = assay: Growth inhibition of human MCF7 cells assessed as cell growth at 3X10'-9 M after 48 hrs by sulforhodamine B assay; details: MCF7, 48 h, read-out: Activity
PC-3 [6] = assay: Growth inhibition of human PC3 cells assessed as cell growth at 3X10'-9 M after 48 hrs by sulforhodamine B assay; details: PC-3, 48 h, read-out: Activity
UO-31 = assay: Growth inhibition of human UO31 cells assessed as cell growth at 3X10'-9 M after 48 hrs by sulforhodamine B assay; details: UO-31, 48 h, read-out: Activity
IGROV-1 = assay: Growth inhibition of human IGROV1 cells assessed as cell growth at 3X10'-9 M after 48 hrs by sulforhodamine B assay; details: IGROV-1, 48 h, read-out: Activity
SF-268 = assay: Growth inhibition of human SF268 cells assessed as cell growth at 3X10'-5 M after 48 hrs by sulforhodamine B assay; details: SF-268, 48 h, read-out: Activity
K562 = assay: Growth inhibition of human K562 cells assessed as cell growth at 3X10'-5 M after 48 hrs by sulforhodamine B assay; details: K562, 48 h, read-out: Activity
HL-60(TB) [7] = assay: Growth inhibition of human HL-60(TB) cells assessed as cell growth at 3X10'-5 M after 48 hrs by sulforhodamine B assay; details: HL-60, 48 h, read-out: Activity
MDA-MB-468 = assay: Growth inhibition of human MDA-MB-468 cells assessed as cell growth at 3X10'-6 M after 48 hrs by sulforhodamine B assay; details: MDA-MB-468, 48 h, read-out: Activity
PC-3 [8] = assay: Growth inhibition of human PC3 cells assessed as cell growth at 3X10'-6 M after 48 hrs by sulforhodamine B assay; details: PC-3, 48 h, read-out: Activity
SK-MEL-2 = assay: Growth inhibition of human SK-MEL-2 cells assessed as cell growth at 3X10'-9 M after 48 hrs by sulforhodamine B assay; details: SK-MEL-2, 48 h, read-out: Activity
MDA-MB-435 = assay: Growth inhibition of human MDA-MB-435 cells assessed as cell growth at 3X10'-9 M after 48 hrs by sulforhodamine B assay; details: MDA-MB-435, 48 h, read-out: Activity
HCT-15 = assay: Growth inhibition of human HCT15 cells assessed as cell growth at 3X10'-9 M after 48 hrs by sulforhodamine B assay; details: HCT-15, 48 h, read-out: Activity
NCI-H460 = assay: Growth inhibition of human NCI-H460 cells assessed as cell growth at 3X10'-9 M after 48 hrs by sulforhodamine B assay; details: NCI-H460, 48 h, read-out: Activity
A549 = assay: Growth inhibition of human A549/ATCC cells assessed as cell growth at 3X10'-9 M after 48 hrs by sulforhodamine B assay; details: A549, 48 h, read-out: Activity
HOP-62 = assay: Growth inhibition of human HOP62 cells assessed as cell growth at 3X10'-9 M after 48 hrs by sulforhodamine B assay; details: HOP-62, 48 h, read-out: Activity
ACHN = assay: Growth inhibition of human ACHN cells assessed as cell growth at 3X10'-6 M after 48 hrs by sulforhodamine B assay; details: read-out: Activity
OVCAR-3 [9] = assay: Growth inhibition of human OVCAR3 cells assessed as cell growth at 3X10'-6 M after 48 hrs by sulforhodamine B assay; details: OVCAR-3, 48 h, read-out: Activity
SK-MEL-5 = assay: Growth inhibition of human SK-MEL-5 cells assessed as cell growth at 3X10'-6 M after 48 hrs by sulforhodamine B assay; details: SK-MEL-5, 48 h, read-out: Activity
NCI-H522 = assay: Growth inhibition of human NCI-H522 cells assessed as cell growth at 3X10'-6 M after 48 hrs by sulforhodamine B assay; details: NCI-H522, 48 h, read-out: Activity
NCI-H226 [10] = assay: Growth inhibition of human NCI-H226 cells assessed as cell growth at 3X10'-6 M after 48 hrs by sulforhodamine B assay; details: NCI-H226, 48 h, read-out: Activity
HOP-92 = assay: Growth inhibition of human HOP92 cells assessed as cell growth at 3X10'-6 M after 48 hrs by sulforhodamine B assay; details: HOP-92, 48 h, read-out: Activity
MOLT-4 = assay: Growth inhibition of human MOLT4 cells assessed as cell growth at 3X10'-6 M after 48 hrs by sulforhodamine B assay; details: MOLT-4, 48 h, read-out: Activity
[11] = Growth inhibition of human Hs 578T cells assessed as cell growth at 3X10'-7 M after 48 hrs by sulforhodamine B assay; details: read-out: Activity
DU-145 = assay: Growth inhibition of human DU145 cells assessed as cell growth at 3X10'-7 M after 48 hrs by sulforhodamine B assay; details: DU-145, 48 h, read-out: Activity

With `COc1cc(-c2nn(-c3cccc(NC(=O)Nc4ccc(Cl)c(C(F)(F)F)c4)c3)cc2-c2ccncc2)ccc1Cl` the growth at 0.3 µM (NCI-H322M [1]) was 91%, the growth at 0.3 µM (HL-60(TB) [2]) was 110% and the growth at 0.03 µM (786-0) was 102%. For the same compound, the growth at 0.003 µM (CCRF-CEM) was 98%, the growth at 0.03 µM (OVCAR-3 [3]) was 109% and the growth at 0.03 µM (SK-MEL-28) was 95%. For the same compound, the growth at 0.03 µM (U-251) was 94%, the growth at 0.03 µM (HT-29) was 106% and the growth at 0.03 µM (NCI-H322M [4]) was 93%. The growth at 0.03 µM (NCI-H226 [5]) was 92%, the growth at 0.003 µM (MDA-MB-231) was 89% and the growth at 0.003 µM (MCF7) was 94%. For the same compound, the growth at 0.003 µM (PC-3 [6]) was 95%, the growth at 0.003 µM (UO-31) was 92% and the growth at 0.003 µM (IGROV-1) was 110%. It also gave a growth at 30 µM (SF-268) of -31%, a growth at 30 µM (K562) of 1% and a growth at 30 µM (HL-60(TB) [7]) of 6%. It also gave a growth at 3 µM (MDA-MB-468) of 6%, a growth at 3 µM (PC-3 [8]) of -11% and a growth at 0.003 µM (SK-MEL-2) of 111%. For the same compound, the growth at 0.003 µM (MDA-MB-435) was 98%, the growth at 0.003 µM (HCT-15) was 94% and the growth at 0.003 µM (NCI-H460) was 103%. The growth at 0.003 µM (A549) was 95%, the growth at 0.003 µM (HOP-62) was 95% and the growth at 3 µM (ACHN) was 8%. It also gave a growth at 3 µM (OVCAR-3 [9]) of -14%, a growth at 3 µM (SK-MEL-5) of -5% and a growth at 3 µM (NCI-H522) of 8%. It also gave a growth at 3 µM (NCI-H226 [10]) of 38%, a growth at 3 µM (HOP-92) of -36% and a growth at 3 µM (MOLT-4) of 9%. It also gave a growth at 0.3 µM [11] of 89% and a growth at 0.3 µM (DU-145) of 103%.
